Experimental data: patent publication EP0007672A1, “Isocyanoalkenes, process and useful intermediates for their preparation, pharmaceutical and fungicidal preparations containing those isocyanoalkenes and the use of the fungicidal preparations in agriculture” (GIST-BROCADES N.V., priority 1978, dated 1980)
Values after ≈ are worked out from the molar mass of the structure shown. Read-outs that look alike come from different tables or passages of the source.

Tests used:
Experiment in all cases: MIC (Minimum Inhibitory Concentration)
Type in all cases: cell-based
Bacillus subtilis = details: ATCC6633; Bacillus subtilis ATCC 6633
Candida albicans = tested on: Candida albicans
Diplococcus pneumoniae = details: Streptococcus pneumoniae; Diplococcus pneumoniae A 2783
Pasteurella multocida = Pasteurella multocida A 723; read-out: MIC values
Proteus morganii = details: Morganella morganii; Proteus morganii 2241
Staphylococcus aureus = tested on: Staphylococcus aureus
[1] = tested on: Streptococcus haemolyticus; details: Streptococcus haemolyticus A 1088; read-out: MIC values
Trichophyton equinum = tested on: Trichophyton equinum
[2] = tested on: Trichophyton mentagrophytus
Trichophyton quickeaneum = Trichophyton quickeaneum A 2040; read-out: MIC values
Trichophyton rubrum = tested on: Trichophyton rubrum
[3] = tested on: Trichophyton schoenleinii; details: Trichophyton schoenleinii 435-63; read-out: MIC values
[4] = tested on: Trichophyton soudanese joyeux; details: Trichophyton soudanese joyeux 440-63; read-out: MIC values
Trichophyton tonsurans = Trichophyton tonsurans 561-50; read-out: MIC values
Trichophyton verrucosum = tested on: Trichophyton verrucosum
Trichophyton violoceum = Trichophyton violoceum 442-62; read-out: MIC values
Fusarium (bulb) = Fusarium (bulb) A 3252
Fusarium (tulip) = Fusarium (tulip) A 3253
Fusarium solani = Fusarium solani A 3245; read-out: MIC values
Rhizoctonia solani = Rhizoctonia solani 200-25; read-out: MIC values
[5] = Candida albicans A 7, read-out: MIC values
[6] = Candida albicans A 3140, read-out: MIC values
[7] = Candida albicans A 3141, read-out: MIC values
[8] = Candida albicans A 3142, read-out: MIC values
[9] = Candida albicans A 3143, read-out: MIC values
[10] = Candida albicans A 3144, read-out: MIC values
[11] = Candida albicans A 3145, read-out: MIC values
[12] = Candida albicans A 3165, read-out: MIC values
[13] = Candida albicans A 3166, read-out: MIC values
[14] = Candida albicans A 3167, read-out: MIC values
[15] = Candida albicans A 3168, read-out: MIC values
[16] = Candida albicans A 3169, read-out: MIC values
[17] = Candida albicans A 3171, read-out: MIC values
[18] = Candida albicans A 3184, read-out: MIC values
[19] = Candida albicans A 3190, read-out: MIC values
[20] = Candida albicans A 3191, read-out: MIC values
[21] = Candida albicans A 3192, read-out: MIC values
[22] = Candida albicans A 3194, read-out: MIC values
[23] = Candida albicans A 3196, read-out: MIC values
[24] = Trichophyton equinum 182-76, read-out: MIC values
[25] = Trichophyton equinum 441-51, read-out: MIC values
[26] = Trichophyton equinum 856-71, read-out: MIC values
[27] = Trichophyton mentagrophytus 367-68, read-out: MIC values
[28] = Trichophyton mentagrophytus 421-67, read-out: MIC values
[29] = Trichophyton mentagrophytus A 3252, read-out: MIC values
[30] = Trichophyton mentagrophytus R 177, read-out: MIC values
[31] = Trichophyton mentagrophytus R 178, read-out: MIC values
[32] = Trichophyton mentagrophytus RRL 305, read-out: MIC values
[33] = Trichophyton rubrum 218-65, read-out: MIC values
[34] = Trichophyton rubrum 494-62, read-out: MIC values
[35] = Trichophyton rubrum A 810, read-out: MIC values
[36] = Trichophyton verrucosum 134-66, read-out: MIC values

Compound: [C-]#[N+]C(=CC(C)(C)C)S(=O)(=O)c1ccc(C)cc1 [Example 4, 3,3-dimethyl-1-isocyano-1-(4-toluenesulphonyl)-1-butene]
- MIC (Bacillus subtilis): 12.5 µg/mL (≈ 47.5 µM)
- MIC (Candida albicans; [5]): 6 µg/mL (≈ 22.8 µM)
- MIC (Candida albicans; [6]): 12.5 µg/mL (≈ 47.5 µM)
- MIC (Candida albicans; [7]): > 100 µg/mL
- MIC (Candida albicans; [8]): 50 µg/mL (≈ 190 µM)
- MIC (Candida albicans; [9]): 6 µg/mL (≈ 22.8 µM)
- MIC (Candida albicans; [10]): 50 µg/mL (≈ 190 µM)
- MIC (Candida albicans; [11]): > 100 µg/mL
- MIC (Candida albicans; [12]): 50 µg/mL (≈ 190 µM)
- MIC (Candida albicans; [13]): 12.5 µg/mL (≈ 47.5 µM)
- MIC (Candida albicans; [14]): 50 µg/mL (≈ 190 µM)
- MIC (Candida albicans; [15]): 50 µg/mL (≈ 190 µM)
- MIC (Candida albicans; [16]): 100 µg/mL (≈ 380 µM)
- MIC (Candida albicans; [17]): 50 µg/mL (≈ 190 µM)
- MIC (Candida albicans; [18]): 100 µg/mL (≈ 380 µM)
- MIC (Candida albicans; [19]): 50 µg/mL (≈ 190 µM)
- MIC (Candida albicans; [20]): 50 µg/mL (≈ 190 µM)
- MIC (Candida albicans; [21]): 25 µg/mL (≈ 94.9 µM)
- MIC (Candida albicans; [22]): > 100 µg/mL
- MIC (Candida albicans; [23]): 25 µg/mL (≈ 94.9 µM)
- MIC (Diplococcus pneumoniae): 6 µg/mL (≈ 22.8 µM)
- MIC (Pasteurella multocida): 3 µg/mL (≈ 11.4 µM)
- MIC (Proteus morganii): 100 µg/mL (≈ 380 µM)
- MIC (Staphylococcus aureus; Staphylococcus aureus A 321): 12.5 µg/mL (≈ 47.5 µM)
- MIC (Staphylococcus aureus; Staphylococcus aureus A 355): 6 µg/mL (≈ 22.8 µM)
- MIC (Staphylococcus aureus; Staphylococcus aureus A 2000): 6 µg/mL (≈ 22.8 µM)
- MIC [1]: 1.5 µg/mL (≈ 5.7 µM)
- MIC (Trichophyton equinum; [24]): 3 µg/mL (≈ 11.4 µM)
- MIC (Trichophyton equinum; [25]): < 0.05 µg/mL
- MIC (Trichophyton equinum; [26]): 0.2 µg/mL (≈ 0.759 µM)
- MIC [2, 27]: 0.2 µg/mL (≈ 0.759 µM)
- MIC [2, 28]: 0.8 µg/mL (≈ 3.04 µM)
- MIC [2, 29]: 1.5 µg/mL (≈ 5.7 µM)
- MIC [2, 30]: 6 µg/mL (≈ 22.8 µM)
- MIC [2, 31]: > 100 µg/mL
- MIC [2, 32]: 3 µg/mL (≈ 11.4 µM)
- MIC (Trichophyton quickeaneum): 3 µg/mL (≈ 11.4 µM)
- MIC (Trichophyton rubrum; [33]): 0.1 µg/mL (≈ 0.38 µM)
- MIC (Trichophyton rubrum; [34]): 0.8 µg/mL (≈ 3.04 µM)
- MIC (Trichophyton rubrum; [35]): 6 µg/mL (≈ 22.8 µM)
- MIC [3]: < 0.05 µg/mL
- MIC [4]: 3 µg/mL (≈ 11.4 µM)
- MIC (Trichophyton tonsurans): 1.5 µg/mL (≈ 5.7 µM)
- MIC (Trichophyton verrucosum; [36]): < 0.05 µg/mL
- MIC (Trichophyton verrucosum; Trichophyton verrucosum N 3, read-out: MIC values): 0.1 µg/mL (≈ 0.38 µM)
- MIC (Trichophyton violoceum): 0.05 µg/mL (≈ 0.19 µM)

Compound: [C-]#[N+]C(=Cc1ccco1)S(=O)(=O)c1ccc(C)cc1 [Example 10, 2-(2-furyl)-1-isocyano-1-(4-toluenesulphonyl)-ethene]
- MIC (Bacillus subtilis): 6 µg/mL (≈ 22 µM)
- MIC (Candida albicans; [5]): 0.2 µg/mL (≈ 0.732 µM)
- MIC (Candida albicans; [6]): 0.2 µg/mL (≈ 0.732 µM)
- MIC (Candida albicans; [7]): 0.4 µg/mL (≈ 1.46 µM)
- MIC (Candida albicans; [8]): 0.4 µg/mL (≈ 1.46 µM)
- MIC (Candida albicans; [9]): 0.2 µg/mL (≈ 0.732 µM)
- MIC (Candida albicans; [10]): 0.2 µg/mL (≈ 0.732 µM)
- MIC (Candida albicans; [11]): 0.8 µg/mL (≈ 2.93 µM)
- MIC (Candida albicans; [12]): 0.4 µg/mL (≈ 1.46 µM)
- MIC (Candida albicans; [13]): 0.4 µg/mL (≈ 1.46 µM)
- MIC (Candida albicans; [14]): 0.4 µg/mL (≈ 1.46 µM)
- MIC (Candida albicans; [15]): 0.4 µg/mL (≈ 1.46 µM)
- MIC (Candida albicans; [16]): 0.4 µg/mL (≈ 1.46 µM)
- MIC (Candida albicans; [17]): 0.4 µg/mL (≈ 1.46 µM)
- MIC (Candida albicans; [18]): 0.2 µg/mL (≈ 0.732 µM)
- MIC (Candida albicans; [19]): 0.4 µg/mL (≈ 1.46 µM)
- MIC (Candida albicans; [20]): 0.4 µg/mL (≈ 1.46 µM)
- MIC (Candida albicans; [21]): 0.2 µg/mL (≈ 0.732 µM)
- MIC (Candida albicans; [22]): 0.4 µg/mL (≈ 1.46 µM)
- MIC (Candida albicans; [23]): 0.4 µg/mL (≈ 1.46 µM)
- MIC (Diplococcus pneumoniae): 6 µg/mL (≈ 22 µM)
- MIC (Fusarium (bulb)): 25 µg/mL (≈ 91.5 µM)
- MIC (Fusarium (tulip)): 12.5 µg/mL (≈ 45.7 µM)
- MIC (Fusarium solani): 25 µg/mL (≈ 91.5 µM)
- MIC (Pasteurella multocida): < 1.5 µg/mL
- MIC (Proteus morganii): 6 µg/mL (≈ 22 µM)
- MIC (Rhizoctonia solani): 1.5 µg/mL (≈ 5.49 µM)
- MIC (Staphylococcus aureus; Staphylococcus aureus A 321): 12.5 µg/mL (≈ 45.7 µM)
- MIC (Staphylococcus aureus; Staphylococcus aureus A 355): 12.5 µg/mL (≈ 45.7 µM)
- MIC (Staphylococcus aureus; Staphylococcus aureus A 2000): 12.5 µg/mL (≈ 45.7 µM)
- MIC [1]: 6 µg/mL (≈ 22 µM)
- MIC (Trichophyton equinum; [24]): 1.5 µg/mL (≈ 5.49 µM)
- MIC (Trichophyton equinum; [25]): < 0.05 µg/mL
- MIC (Trichophyton equinum; [26]): < 0.05 µg/mL
- MIC [2, 27]: 0.1 µg/mL (≈ 0.366 µM)
- MIC [2, 28]: 1.5 µg/mL (≈ 5.49 µM)
- MIC [2, 29]: 3 µg/mL (≈ 11 µM)
- MIC [2, 30]: 1.5 µg/mL (≈ 5.49 µM)
- MIC [2, 31]: 100 µg/mL (≈ 366 µM)
- MIC [2, 32]: 0.1 µg/mL (≈ 0.366 µM)
- MIC (Trichophyton quickeaneum): 3 µg/mL (≈ 11 µM)
- MIC (Trichophyton rubrum; [33]): 0.1 µg/mL (≈ 0.366 µM)
- MIC (Trichophyton rubrum; [34]): 0.1 µg/mL (≈ 0.366 µM)
- MIC (Trichophyton rubrum; [35]): < 0.05 µg/mL
- MIC [3]: 0.1 µg/mL (≈ 0.366 µM)
- MIC [4]: 6 µg/mL (≈ 22 µM)
- MIC (Trichophyton tonsurans): 3 µg/mL (≈ 11 µM)
- MIC (Trichophyton verrucosum; [36]): 0.2 µg/mL (≈ 0.732 µM)
- MIC (Trichophyton verrucosum; Trichophyton verrucosum A 2922, read-out: MIC values): < 0.05 µg/mL
- MIC (Trichophyton violoceum): 0.1 µg/mL (≈ 0.366 µM)
